From ChEMBL document CHEMBL1201862, “PubChem BioAssay data set” (2004)
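Exposure lasted 48 hours, with cells grown in 96-well plates and compounds tested at five concentrations. GI50 = concentration required for 50% inhibition of growth.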 Calls of active or inactive are those of the source. Rule as the data show it: active = GI50 up to about 1.1 µM and inactive = higher.

Legend:
Assay in all cases: NCI-60 cell line screen, 48 h
MOLT-4 = tested on: MOLT-4
UACC-62 = tested on: UACC-62
SN12C = tested on: SN12C
786-0 = tested on: 786-0
NCI-H23 = tested on: NCI-H23
UO-31 = tested on: UO-31
HL-60 = tested on: HL-60
OVCAR-4 = tested on: OVCAR-4
TK-10 = tested on: TK-10
KM12 = tested on: KM12
CAKI-1 = tested on: CAKI-1
OVCAR-3 = tested on: OVCAR-3
SK-OV-3 = tested on: SK-OV-3
SNB-75 = tested on: SNB-75
HT-29 = tested on: HT-29
SK-MEL-5 = tested on: SK-MEL-5
U-251 = tested on: U-251
CCRF-CEM = tested on: CCRF-CEM
NCI-H522 = tested on: NCI-H522
SF-539 = tested on: SF-539

Structure (SMILES)	GI50 (MOLT-4)	GI50 (UACC-62)	GI50 (SN12C)	GI50 (786-0)	GI50 (NCI-H23)	GI50 (UO-31)	GI50 (HL-60)	GI50 (OVCAR-4)	GI50 (TK-10)	GI50 (KM12)	GI50 (CAKI-1)	GI50 (OVCAR-3)	GI50 (SK-OV-3)	GI50 (SNB-75)	GI50 (HT-29)	GI50 (SK-MEL-5)	GI50 (U-251)	GI50 (CCRF-CEM)	GI50 (NCI-H522)	GI50 (SF-539)
CCOc1ccc(NC(=O)C(=O)CC(=O)c2c(C)[n+]([O-])c3ccccc3[n+]2[O-])cc1	81.5 µM (inactive)	> 100 µM (inactive)	> 100 µM (inactive)	> 100 µM (inactive)	> 100 µM (inactive)	> 100 µM (inactive)	> 100 µM (inactive)	> 100 µM (inactive)	> 100 µM (inactive)	> 100 µM (inactive)	> 100 µM (inactive)	> 100 µM (inactive)	> 100 µM (inactive)	> 100 µM (inactive)	> 100 µM (inactive)	> 100 µM (inactive)	> 100 µM (inactive)	> 100 µM (inactive)	> 100 µM (inactive)	> 100 µM (inactive)
O=c1[nH]nc(-c2ccccc2)n1/N=C/c1ccccc1Cl	22.4 µM (inactive)	20 µM (inactive)	48.8 µM (inactive)	32.5 µM (inactive)	34.7 µM (inactive)	42.8 µM (inactive)	19.5 µM (inactive)	15.2 µM (inactive)	75.9 µM (inactive)	12 µM (inactive)	36.6 µM (inactive)	23.8 µM (inactive)	48.8 µM (inactive)	36.5 µM (inactive)	28.9 µM (inactive)	18.6 µM (inactive)	38.5 µM (inactive)	28.1 µM (inactive)	18 µM (inactive)	39.3 µM (inactive)
COc1ccc(OC)c(/C=C/NC=O)c1	> 100 µM (inactive)	> 100 µM (inactive)	> 100 µM (inactive)	> 100 µM (inactive)	> 100 µM (inactive)	> 100 µM (inactive)	> 100 µM (inactive)	> 100 µM (inactive)	> 100 µM (inactive)	> 100 µM (inactive)	> 100 µM (inactive)	> 100 µM (inactive)	> 100 µM (inactive)	> 51.6 µM (inactive)	> 100 µM (inactive)	> 100 µM (inactive)	> 100 µM (inactive)	> 100 µM (inactive)	> 100 µM (inactive)	> 100 µM (inactive)
CCCCCCCC(=O)OCC1OC(n2cc(F)c(=O)[nH]c2=O)C(NC(=O)OCc2ccccc2)C(OC(=O)CCCCCCC)C1O (stereo not given)	9.93 µM (inactive)	19.5 µM (inactive)	14.1 µM (inactive)	23.5 µM (inactive)	41.4 µM (inactive)	0.106 µM (active)	16.5 µM (inactive)	10.5 µM (inactive)	38 µM (inactive)	35.3 µM (inactive)	19.2 µM (inactive)	20.6 µM (inactive)	> 100 µM (inactive)	24.5 µM (inactive)	29.8 µM (inactive)	0.309 µM (active)	22.9 µM (inactive)	17.5 µM (inactive)	16.7 µM (inactive)	26.3 µM (inactive)
O=c1c2ccccc2nc(-c2ccc(Br)cc2)n1NC1OC(CO)C(O)C(O)C1O (stereo not given)	31.6 µM (inactive)	79.6 µM (inactive)	> 100 µM (inactive)	> 100 µM (inactive)	> 100 µM (inactive)	78 µM (inactive)	34.1 µM (inactive)	42 µM (inactive)	> 100 µM (inactive)	> 100 µM (inactive)	> 100 µM (inactive)	31.3 µM (inactive)	> 100 µM (inactive)	80.5 µM (inactive)	> 100 µM (inactive)	75.9 µM (inactive)	> 100 µM (inactive)	32.8 µM (inactive)	81.7 µM (inactive)	> 100 µM (inactive)
COc1c2c(nc3ccccc13)-c1cc3c(c(=O)n1C2)COC(=O)C3(O)CC(=O)N1CCOCC1 (stereo not given)	0.29 µM (active)	0.76 µM (active)	1.59 µM (inactive)	2.07 µM (inactive)	1.75 µM (inactive)	7.16 µM (inactive)	2.72 µM (inactive)	46.1 µM (inactive)	75 µM (inactive)	17.1 µM (inactive)	3.79 µM (inactive)	19.4 µM (inactive)	9.48 µM (inactive)	1.35 µM (inactive)	17.3 µM (inactive)	4.09 µM (inactive)	0.528 µM (active)	0.164 µM (active)	1.9 µM (inactive)	0.964 µM (active)
